From US12458597B2, “Carotenoid compositions and uses thereof” (L.E.A.F. HOLDINGS GROUP LLC, priority 2018, dated 2025)

How the values were obtained:
[1] = Liposomal CTC and MTC PK in mice, plasma STC by HPLC; format: in vivo; conditions: mouse, single dose, slow intravenous bolus
[2] = Maximum solubility of trans-crocetin sodium in aqueous media; format: physicochemical; conditions: 5% dextrose (aqueous medium), saline or isotonic; in 5% dextrose
Experimental: The ethanolic lipid solution containing HSPC, cholesterol, PEG-DSPE, with/without PGPC was added into the aqueous solution using a pipet. During this step the solution was well stirred using a magnetic stirrer. The mixing was performed at an elevated temperature (63° C.-72° C.) to ensure that the lipids are in the liquid crystalline state (as opposed to the gel state they attain at temperatures below the lipid transition temperature (Tm=51° C.-54° C.). As a result, the lipids are hydrated and formed multiple bilayer (multilamellar) vesicles (MLV) containing trans-crocetin sodium in the aqueous core. The MLVs were then downsized by extrusion as described previously.
The ethanolic lipid solution containing HSPC, cholesterol, PEG-DSPE, with/without PGPC and the trans-crocetin sodium aqueous solution were separately transferred to syringes. Two solutions were injected into a microfluidic channel and mixed while flowing through it with Precision NanoSystems' NanoAssemblr® device. The mixing was performed at an elevated temperature (63° C.-72° C.) to ensure that the lipids were in a liquid crystalline state (as opposed to the gel state that they attain at temperatures below the lipid transition temperature (Tm=51° C.-54° C.). The liposome size can be controlled by varying the ratio between lipid solution and aqueous solution, as well as the mixing flow rate.

[3] = tested on: mouse CLP sepsis model; experiment: CLP sepsis survival Study 1 (TP-936); format: in vivo, C57BL/6 mice; conditions: CLP mice treated with saline and imipenem (control group); over 5 days
Excerpt: Male and/or female C57BL/6 mice ordered from Envigo Laboratories or the Jackson Lab (Bar Harbor, Maine) were acclimated to housing conditions and handled in accordance with Animal Use Protocol (AUP) number TP-05. The animals were acclimated for approximately 1 week prior to study start. Only animals deemed healthy were included in this study. Animals were fed irradiated Teklad Global Rodent Diet 2918 and water ad libitum. Mice were group housed 5/cage in static cages with irradiated Teklad ⅛″ corn cob bedding 7902 inside bioBubble® Clean Rooms that provide H.E.P. A filtered air into the bubble environment at 100 complete air changes per hour. The environment was controlled to a temperature range of 74°±5° F. and a humidity range of 30-70%. Treatment groups were identified by cage card. Individual mice were identified by indelible marker on the base of the tail. All procedures carried out in this experiment were conducted in compliance with the laws, regulations, and guidelines of the National Institutes of Health and with the approval of the TransPharm Animal Care and Use Committee.
On Day −1, male and/or female mice were anesthetized through use of isoflurane and brought to a surgical plane. […]
Animals were monitored continually post-surgery, at least once every 2-3 minutes for approximately 30 minutes, until the animals had recovered and were able to move about on their own. […]

[4] = Balb/c, iv, plasma over 24 hour

Row | AUC [1, 4] | half-life [1, 4] | Cmax ([1]; Balb/c mice) | solubility [2] | SMILES | mortality [3]
1 | 210 µg·h/mL | 21 min | 360 µg/mL | 700 µg/mL | CC(/C=C/C=C(\C)C(=O)O)=C\C=C\C=C(C)\C=C\C=C(/C)C(=O)O [STC free drug, sodium trans-crocetinate] | 
2 |  |  |  |  | C[C@@H](O)[C@H]1C(=O)N2C(C(=O)O)=C(SCCN=CN)C[C@H]12 [imipenem] | 50%
